From patent US8907107B2 (Hae Therapeutics Limited, priority 2009, dated 2014)
Marks after values point to notes of the source that are not given here. Blank lines part the entries; values can stand above or below the compound they belong to.

Experiments:
[1] = UV-visible absorption spectra; format: physicochemical; details: for λabs: longest-wavelength band, from compound data
physchem = assay: physchem
From the text: A trace pH=6.0, B trace pH=9.0. Excitation at 640 nm, slit widths 10 nm, 5×10^−7 M in water/CrEL.
FIG. 6. […] Excitation at 640 nm, slit widths 20 nm, 5×10^−7 M in water/CrEL. INaCl=150 mmol/L.

MDA-MB-231 cells [2] = assay: Confocal imaging of cell internalization and intracellular on/off switching of 8a; format: cell-based
From the text: The difference in averaged whole cell red fluorescence taken from off-cells to on-cells was six-fold (FIG. 7).

[3] = Fluorescence emission spectra and quantum yield; format: physicochemical; details: for λmax emiss.: 5 × 10^−7 M, excitation 640 nm, slit widths 5 nm
MDA-MB-231 cells [4] = assay: Cellular uptake of 16 and 17, CLSM imaging; format: cell-based; details: 5 μM; for cellular uptake: 1 hour incubation, DMEM; for subcellular localisation: 1 hour, 3-D reconstruction, DAPI co-staining
Procedure: These spectroscopic properties correlate perfectly to the optical requirements of commercially available confocal laser scanning microscopy (CLSM) instruments and small animal optical imaging instruments. Cellular uptake of DMEM solutions of 16 and 17 were utilised to illustrate their potential for in vitro imaging. Compounds 16 and 17 were incubated with MDA-MB-231 cells for 1 hour at 5 μM concentration and the excess dye was removed by washing with PBS before visualisation.
(§1) MDA-MB-231 cells were seeded into a 8 well chambered microscopy slide and they were grown overnight in DMEM media at 37° C. in the presence of 5% CO2. The media was then removed and 16 and 17 (5 μM) was added, followed by an incubation period of 1 hour in the dark. Cells were then washed with PBS to remove excess compound. Prior to visualization, cells were fixed in 3.7% formaldehyde solution, co-stained with DAPI and a coverslip was mounted onto the microscopy slide. In a similar way, E. coli cells were incubated with 21 (4 μM) in the dark for 10 minutes. The bacterial cells were washed with PBS and An aliquot of this solution was suspended onto a microscopy slide and allowed to dry. Before imaging, a coverslip was mounted onto the microscopy slide. Images were obtained using an LSM510 META confocal laser scanning microscope equipped with 63× numerical aperture 1.4 objective. DAPI was excited at 364 nm and detected with a band-pass filter 385-470 nm, whilst 16, 17 and 21 were excited at 633 nm and their fluorescence was detected through a 650 nm long-pass filter.

E. coli cells = assay: Bacterial cell uptake of 21, confocal imaging; format: cell-based, Escherichia coli; details: gram-negative; 4 μM, 10 minutes
Procedure: as §1
(§2) It was envisaged that the bis-cationic nature of sensitizer 21 would be optimal for uptake into prokaryotic cells thereby broadening their utility. […] Confocal imaging confirmed the binding of 21 to both gram-positive and negative bacterial cells (FIGS. 28a, 28b).

S. aureus cells = assay: Bacterial cell uptake of 21, confocal imaging; format: cell-based, Staphylococcus aureus; details: gram-positive; 4 μM, 10 minutes
Procedure: as §1, §2

[5] = 730 nm, excitation 640 nm, 5×10^−7 M in water/CrEL

- λmax abs. ([1]; CH3OH, 5 × 10^−6 M): 687 nm
Structure (SMILES): O=C(O)CCCn1cc(COc2ccc(C3=NC(=Nc4[nH]c(-c5ccc(O)cc5)cc4-c4ccccc4)C(c4ccccc4)=C3)cc2)nn1 [Compound 8b, 4-[4-(4-[5-[5-(4-Hydroxyphenyl)-3-phenyl-1H-pyrrol-2-ylimino]-4-phenyl-5H-pyrrol-2-yl]-phenoxymethyl)-[1,2,3]triazol-1-yl]butyric acid]

- λmax abs. ([1]; CH3OH, 5 × 10^−6 M): 687 nm
Structure (SMILES): CC(C)(C)OC(=O)NCCn1cc(COc2ccc(C3=NC(=Nc4[nH]c(-c5ccc(O)cc5)cc4-c4ccccc4)C(c4ccccc4)=C3)cc2)nn1 [Compound 8c, {2-[4-(4-{5-[5-(4-Hydroxyphenyl)-3-phenyl-1H-pyrrol-2-ylimino]-4-phenyl-5H-pyrrol-2-yl}-phenoxymethyl)-[1,2,3]triazol-1-yl]ethyl}carbamic acid t-butyl ester]

The remaining lines, values behind:

Structure (SMILES): OC[C@H]1O[C@@H](n2cc(COc3ccc(-c4cc(-c5ccccc5)c5n4[B-](F)(F)[N+]4=C(c6ccc(O)cc6)C=C(c6ccccc6)C4=N5)cc3)nn2)[C@H](O)[C@@H](O)[C@H]1O [Compound 8a]
- λmax abs. ([1]; CH3OH, 5 × 10^−6 M): 687 nm
- pKa (physchem): 6.9
- fluorescence intensity difference between pH 6.6 and 8 (physchem; [5]): 6 fold
- fluorescence intensity difference from pH 6.1 to 7.2 (physchem; [5]): greater than 2 fold
- intracellular emission after addition of basic buffer (MDA-MB-231 cells [2]; aqueous carbonate buffer pH 8.0): almost complete quenching
- subcellular localisation of red emission (MDA-MB-231 cells [2]; incubation 1 h, DAPI co-staining): localised to the cytosol
- intracellular emission after addition of acidic buffer (MDA-MB-231 cells [2]; pH 6.6 buffer): re-established
- difference in averaged whole cell red fluorescence from off-cells to on-cells (MDA-MB-231 cells [2]; pH 8.0 versus pH 6.6 buffer): six-fold

Structure (SMILES): COCCOCCOCCOc1ccc(-c2cc(-c3ccccc3)c3n2[B-](F)(F)[N+]2=C(c4ccc(OCCNC(=O)OC(C)(C)C)cc4)C=C(c4ccccc4)C2=N3)cc1 [Compound 9]
- ε×10^−3 ([1]; CHCl3, at 689 nm): 87.1
- λabs ([1]; CHCl3): 689 nm
- fluorescence quantum yield Φf ([3]; CHCl3, 1 as standard): 0.36
- λemiss ([3]; CHCl3, from compound data): 717 nm
- Φf ([3]; ethanol, 1 used as standard): 0.23
- λmax emiss. ([3]; ethanol): 714 nm

Structure (SMILES): O=C(O)COc1ccc(C2=[N+]3C(=Nc4c(-c5ccccc5)cc(-c5ccc(OCC(=O)O)cc5)n4[B-]3(F)F)C(c3ccccc3)=C2)cc1 [Compound 16]
- λmax abs. ([1]; CHCl3, 1 × 10^−6 M): 681 nm
- λmax abs. ([1]; DMEM, 1 × 10^−6 M): 694 nm
- λmax abs. ([1]; MeOH, 1 × 10^−6 M): 681 nm
- λmax abs. ([1]; PBS/BSA, 1 × 10^−6 M): 692 nm
- Φf ([3]; CHCl3): 0.30
- λmax emiss. ([3]; DMEM): 722 nm
- λmax emiss. ([3]; MeOH): 715 nm
- λmax emiss. ([3]; PBS/BSA (4×10^−4 M BSA)): 718 nm
- cellular uptake (MDA-MB-231 cells [4]): efficiently taken up by cells
- subcellular localisation (MDA-MB-231 cells [4]): primarily to the cytoplasm

Structure (SMILES): O=S(=O)(O)CCCOc1ccc(C2=[N+]3C(=Nc4c(-c5ccccc5)cc(-c5ccc(OCCCS(=O)(=O)O)cc5)n4[B-]3(F)F)C(c3ccccc3)=C2)cc1 [Compound 17]
- λmax abs. ([1]; CHCl3, 1 × 10^−6 M): 694 nm
- λmax abs. ([1]; CHCl3, 1 × 10^−6 M, as tetra-butylammonium salt): 694^e nm
- λmax abs. ([1]; DMEM, 1 × 10^−6 M): 694 nm
- λmax abs. ([1]; MeOH, 1 × 10^−6 M): 687 nm
- λmax abs. ([1]; PBS/BSA, 1 × 10^−6 M): 692 nm
- Φf ([3]; CHCl3): 0.31
- λmax emiss. ([3]; CHCl3): 726 nm
- λmax emiss. ([3]; DMEM): 728 nm
- λmax emiss. ([3]; PBS/BSA (4×10^−4 M BSA)): 718 nm
- cellular uptake (MDA-MB-231 cells [4]): efficiently taken up by cells
- subcellular localisation (MDA-MB-231 cells [4]): primarily to the cytoplasm

Structure (SMILES): CCN(CC)Cc1ccc(C2=CC(c3ccc(OC)cc3)=[N+]3C2=Nc2c(-c4ccc(CN(CC)CC)cc4)cc(-c4ccc(OC)cc4)n2[B-]3(F)F)cc1 [Compound 20]
- ε ([1]; CHCl3, at 691 nm): 76,000 Lmol^−1 cm^−1
- λabs ([1]; CHCl3): 691 nm

Structure (SMILES): CC[N+](C)(CC)Cc1ccc(C2=CC(c3ccc(OC)cc3)=[N+]3C2=Nc2c(-c4ccc(C[N+](C)(CC)CC)cc4)cc(-c4ccc(OC)cc4)n2[B-]3(F)F)cc1.[I-].[I-] [Compound 21]
- λmax abs. ([1]; CHCl3, 1 × 10^−6 M): 702 nm
- λmax abs. ([1]; DMEM, 1 × 10^−6 M): 709 nm
- λmax abs. ([1]; MeOH, 1 × 10^−6 M): 702 nm
- λmax abs. ([1]; PBS/BSA, 1 × 10^−6 M): 706 nm
- Φf ([3]; CHCl3): 0.22
- λmax emiss. ([3]; CHCl3): 735 nm
- λmax emiss. ([3]; DMEM): 737 nm
- λmax emiss. ([3]; MeOH): 732 nm
- λmax emiss. ([3]; PBS/BSA (4×10^−4 M BSA)): 730 nm
- cellular uptake / binding (E. coli cells): sufficient for cellular uptake
- cellular uptake / binding (S. aureus cells): sufficient for cellular uptake
